This passage reports Ki and IC50 results from ChEMBL document CHEMBL4340578, “11-Aminostrychnine and N-(Strychnine-11-yl)propionamide: Synthesis, Configuration, and Pharmacological Evaluation at Glycine Receptors” (J Nat Prod, 2019).

Structures are written as SMILES.

In assay [1] the target is T1, Glycine receptor subunit alpha-1 (Homo sapiens, UniProt P23415).
T1 sequence (P23415 whole entry): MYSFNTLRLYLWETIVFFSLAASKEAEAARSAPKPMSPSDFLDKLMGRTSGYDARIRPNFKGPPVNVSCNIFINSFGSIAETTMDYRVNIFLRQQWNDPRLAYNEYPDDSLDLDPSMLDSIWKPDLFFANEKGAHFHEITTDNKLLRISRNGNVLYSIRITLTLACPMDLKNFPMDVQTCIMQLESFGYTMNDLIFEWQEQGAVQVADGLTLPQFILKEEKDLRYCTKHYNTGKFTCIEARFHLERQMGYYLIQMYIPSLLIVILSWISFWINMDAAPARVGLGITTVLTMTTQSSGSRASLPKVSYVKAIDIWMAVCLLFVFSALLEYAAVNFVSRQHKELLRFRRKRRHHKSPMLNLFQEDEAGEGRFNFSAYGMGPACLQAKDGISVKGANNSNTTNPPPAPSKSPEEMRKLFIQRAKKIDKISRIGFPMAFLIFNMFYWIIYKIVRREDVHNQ
The experiment in a line: Displacement of [3H]strychnine from human glycine receptor subunit alpha-1 expressed in HEK293 cell membranes. For orientation: Loss of bound radioactivity is the signal in a displacement assay; it reports binding, not function.

The target of assay [2] is T1, Glycine receptor subunit alpha-1. Nature of the assay: Antagonist activity at human glycine receptor subunit alpha-1 expressed in human tsA201 cells assessed as reduction in glycine-induced response by fluorescence-based FLIPR membrane potential blue assay. It counts as cell-based.
Assay [3] has as its target T2, Glycine receptor (alpha-1/beta) (Homo sapiens, UniProt P23415+P48167). The experiment in a line: Antagonist activity at human glycine receptor subunit alpha-1beta expressed in human tsA201 cells assessed as reduction in glycine-induced response by fluorescence-based FLIPR membrane potential blue assay. It counts as cell-based.
The target of assay [4] is T1, Glycine receptor subunit alpha-1. The experiment in a line: Antagonist activity at human glycine receptor subunit alpha-1 expressed in HEK293 cells assessed as reduction in glycine-induced whole cell currents by patch-clamp technique. It is filed as cell-based.
Assay [5] addresses T2, Glycine receptor (alpha-1/beta). The experiment in a line: Antagonist activity at human glycine receptor subunit alpha-1beta expressed in HEK293 cells assessed as reduction in glycine-induced whole cell currents by patch-clamp technique. It counts as cell-based. (The patch-clamp technique gives a direct electrical read-out from membranes.)

T2 sequence (P48167 whole entry, one chain of several): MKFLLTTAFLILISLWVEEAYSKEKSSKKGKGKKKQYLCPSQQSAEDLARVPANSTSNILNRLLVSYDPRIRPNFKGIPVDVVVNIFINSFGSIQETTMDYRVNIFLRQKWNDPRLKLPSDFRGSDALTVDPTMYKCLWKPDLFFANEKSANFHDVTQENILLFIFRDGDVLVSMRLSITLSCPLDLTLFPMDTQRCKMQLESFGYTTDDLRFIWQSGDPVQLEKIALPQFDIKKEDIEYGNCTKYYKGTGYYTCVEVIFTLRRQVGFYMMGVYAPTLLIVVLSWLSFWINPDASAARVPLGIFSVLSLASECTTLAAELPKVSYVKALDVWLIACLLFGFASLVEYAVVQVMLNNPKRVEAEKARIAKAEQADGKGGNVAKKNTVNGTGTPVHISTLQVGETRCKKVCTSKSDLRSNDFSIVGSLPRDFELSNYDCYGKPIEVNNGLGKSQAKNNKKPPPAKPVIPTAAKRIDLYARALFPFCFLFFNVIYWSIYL

The term Ki denotes a measure of affinity in units of concentration, obtained from inhibition or displacement. Broadly, the IC50 is the concentration that gives 50% inhibition. As to `CCC(=O)N[C@@H]1C(=O)N2c3ccccc3[C@@]34CCN5CC6=CCO[C@@H]1[C@@H]([C@H]23)[C@H]6C[C@H]54`, affinity in assay [1] was put at a Ki of 91 nM. In addition, the IC50 in assay [2] amounted to 710 nM; in assay [3], 2200 nM; in assay [4], 173 nM; in assay [5], 147 nM.
In turn, `N[C@@H]1C(=O)N2c3ccccc3[C@@]34CCN5CC6=CCO[C@@H]1[C@@H]([C@H]23)[C@H]6C[C@H]54` returned a Ki in assay [1] of 741 nM. The IC50 amounted to 1000 nM in assay [2], 7700 nM in assay [3] and 194 nM in assay [4].
In turn, `O=C1C[C@@H]2OCC=C3CN4CC[C@]56c7ccccc7N1[C@H]5[C@H]2[C@H]3C[C@H]46` [STRYCHNINE] registered a Ki in assay [1] of 123 nM. In addition, the concentration for half-maximal inhibition (IC50) in assay [2] worked out at 150 nM; in assay [3], 510 nM.
